The record followed here is patent US20220324876A1, “4-SUBSTITUTED PYRANO[3,4,b]PYRAZINE KAPPA AGONISTS FOR TREATING DRUG DEPENDENCY” (The Rockefeller University, priority 2019, published 2022).

The structures appear in SMILES notation. Like-named read-outs stand apart in the source and are kept apart here.

This assay addresses T1, human kappa opioid receptors (Homo sapiens, UniProt P41145).
T1 construct: expressed in transfected cells; host or cells: U2OS
Nature of the assay: [35S]GTPγS binding, membranes from U2OS cells. It is filed as biochemical. The settings on record: for Emax: read-out: GTPγS (% efficacy).

In general, EC50 refers to the concentration giving half of the maximal effect. A low value points to higher potency in that assay.

T1 sequence (P41145 whole entry): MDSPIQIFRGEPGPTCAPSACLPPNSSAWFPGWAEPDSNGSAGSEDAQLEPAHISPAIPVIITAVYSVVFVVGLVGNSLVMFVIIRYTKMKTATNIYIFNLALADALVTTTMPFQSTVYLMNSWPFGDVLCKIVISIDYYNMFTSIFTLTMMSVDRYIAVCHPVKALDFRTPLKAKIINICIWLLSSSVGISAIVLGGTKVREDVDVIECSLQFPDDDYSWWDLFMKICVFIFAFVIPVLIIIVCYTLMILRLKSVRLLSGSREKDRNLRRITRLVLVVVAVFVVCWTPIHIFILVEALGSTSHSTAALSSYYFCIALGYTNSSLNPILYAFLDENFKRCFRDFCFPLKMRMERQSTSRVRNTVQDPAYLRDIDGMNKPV

As to `O=C(Cc1ccc(Cl)c(Cl)c1)N1CCN(C(=O)c2ccno2)[C@@H]2COC[C@H](N3CCCC3)[C@H]21` (racemic) [rac-5A121], the Emax came out at 86%. The same molecule had an EC50 (GTPγS EC50 (nM), Table D) of 17 nM.
As to `O=C(Cc1ccc(Cl)c(Cl)c1)N1CCN(CC2CCOCC2)[C@@H]2COC[C@H](N3CCCC3)[C@H]21` (racemic) [rac-5A84], the EC50 came out at 136 nM and the Emax amounted to 84%.
Take `O=C(Cc1ccc(Cl)c(Cl)c1)N1CCN(S(=O)(=O)CCO)[C@H]2COC[C@@H](N3CCCC3)[C@@H]21` (single isomer, unassigned) [Example 5A140B]: the Emax came to 107%. The molecule further registered an EC50 (GTPγS EC50 (nM), Table D) of 22 nM.
With `O=C(Cc1ccc(Cl)c(Cl)c1)N1CCN(Cc2ncco2)[C@@H]2COC[C@H](N3CCCC3)[C@H]21` (racemic) [rac-5A111], the Emax is 146%. For the setting “GTPγS EC50 (nM), Table D”, this molecule had an EC50 of 9.8 nM.
Regarding `O=C(Cc1ccc(Cl)c(Cl)c1)N1CCN(Cc2ccc(F)cc2)[C@H]2COC[C@@H](N3CCCC3)[C@@H]21` (single isomer, unassigned) [Example 5A136B], the Emax stood at 129%. For the same molecule, the EC50 (GTPγS EC50 (nM), Table D) stood at 74 nM.
In the case of `O=C(Cc1ccc(Cl)c(Cl)c1)N1CCN(Cc2cn[nH]c2)[C@@H]2COC[C@H](N3CCCC3)[C@H]21` (racemic) [rac-5A107], the Emax is 112%. This molecule also displayed an EC50 (GTPγS EC50 (nM), Table D) of 3.9 nM.
As for `Cn1cc(CN2CCN(C(=O)Cc3ccc(Cl)c(Cl)c3)[C@H]3[C@H]2COC[C@@H]3N2CCCC2)cn1` (racemic) [rac-5A79], a half-maximal effect (EC50) was put at 107 nM and the Emax worked out at 82%.
For `CC(F)(F)CN1CCN(C(=O)Cc2ccc(Cl)c(Cl)c2)[C@H]2[C@H]1COC[C@@H]2N1CCCC1` [Example 5A127A], the Emax is 110%. For the same molecule, where the note is “GTPγS EC50 (nM), Table D”, the EC50 came to 5.3 nM.
The matching figures for `O=C(Cc1ccc(Cl)c(Cl)c1)N1CCN(S(=O)(=O)CCO)[C@@H]2COC[C@H](N3CCCC3)[C@H]21` (single isomer, unassigned) [Example 5A140A]: 112% and 20 nM.
For `O=C(Cc1ccc(Cl)c(Cl)c1)N1CCN(C(=O)C2(O)CCCC2)[C@H]2COC[C@@H](N3CCCC3)[C@@H]21` (single isomer, unassigned) [Example 5A125B], the Emax was determined as 81%. This molecule also had an EC50 (GTPγS EC50 (nM), Table D) of 35 nM.
Consider `O=C(Cc1ccc(Cl)c(Cl)c1)N1CCN(Cc2cccnc2)[C@@H]2COC[C@H](N3CCCC3)[C@H]21` (racemic) [rac-5A81], for which the Emax was determined as 95%. Also, for the setting “GTPγS EC50 (nM), Table D”, the EC50 is 7.4 nM.
Regarding `NC(=O)CN1CCN(C(=O)Cc2ccc(Cl)c(Cl)c2)[C@H]2[C@H]1COC[C@@H]2N1CCCC1` (racemic) [rac-5A102], the Emax is 96%. The molecule also registered an EC50 (GTPγS EC50 (nM), Table D) of 37 nM.
Regarding `O=C(Cc1ccc(Cl)c(Cl)c1)N1CCN(Cc2ccn[nH]2)[C@@H]2COC[C@H](N3CCCC3)[C@H]21` (racemic) [rac-5A108], the Emax came to 98%. Under “GTPγS EC50 (nM), Table D”, this molecule had a concentration giving a half-maximal response (EC50) of 26 nM.
Turning to `CN(C)S(=O)(=O)N1CCN(C(=O)Cc2ccc(Cl)c(Cl)c2)[C@H]2[C@H](N3CCCC3)COC[C@@H]21` (single isomer, unassigned) [Example 5A56B], the Emax worked out at 122%. The EC50 (GTPγS EC50 (nM), Table D) came to 123 nM.
`O=C(Cc1ccc(Cl)c(Cl)c1)N1CCN(Cc2ccc(F)cc2)[C@@H]2COC[C@H](N3CCCC3)[C@H]21` (single isomer, unassigned) [Example 5A136A]: the Emax was found to be 105%. The EC50 (GTPγS EC50 (nM), Table D) was 7 nM.
Take `O=C(Cc1ccc(Cl)c(Cl)c1)N1CCN(Cc2ncon2)[C@@H]2COC[C@H](N3CCCC3)[C@H]21` (racemic) [rac-5A100]: the Emax worked out at 86%. Moreover, for the setting “GTPγS EC50 (nM), Table D”, the EC50 was 1.9 nM.
As to `O=C(Cc1ccc(Cl)c(Cl)c1)N1CCN(CCC2COC2)[C@@H]2COC[C@H](N3CCCC3)[C@H]21` (single isomer, unassigned) [Example 5A142A], the Emax was 77%. This molecule also displayed an EC50 (GTPγS EC50 (nM), Table D) of 70 nM.
For the molecule `O=C(Cc1ccc(Cl)c(Cl)c1)N1CCN(C(=O)c2ccon2)[C@@H]2COC[C@H](N3CCCC3)[C@H]21` (racemic) [rac-5A97], the Emax amounted to 88%. Where the note is “GTPγS EC50 (nM), Table D”, the EC50 was 0.8 nM.
Take `O=C(Cc1ccc(Cl)c(Cl)c1)N1CCN(Cc2ccon2)[C@@H]2COC[C@H](N3CCCC3)[C@H]21` [Example 5A86A]: the Emax worked out at 99%. The EC50 (GTPγS EC50 (nM), Table D) was determined as 1 nM.
In the same order, the values of `O=C(Cc1ccc(Cl)c(Cl)c1)N1CCN(C(=O)CO)[C@H]2COC[C@@H](N3CCCC3)[C@@H]21` (single isomer, unassigned) [Example 5A95B] are 78% and 202 nM.
As to `O=C(Cc1ccc(Cl)c(Cl)c1)N1CCN(Cc2cccc(F)c2)[C@H]2COC[C@@H](N3CCCC3)[C@@H]21` (single isomer, unassigned) [Example 5A145B], the Emax came to 91%. This molecule also showed an EC50 (GTPγS EC50 (nM), Table D) of 9.7 nM.
For the molecule `O=C(Cc1ccc(Cl)c(Cl)c1)N1CCN(C(=O)C2(O)CC2)[C@@H]2COC[C@H](N3CCCC3)[C@H]21` (single isomer, unassigned) [Example 5A126A], the Emax worked out at 98%. The EC50 (GTPγS EC50 (nM), Table D) turned out to be 16 nM.
As for `O=C(Cc1ccc(Cl)c(Cl)c1)N1CCN(C(=O)CO)[C@@H]2COC[C@H](N3CCCC3)[C@H]21` (single isomer, unassigned) [Example 5A95A], the Emax came out at 87%. For the setting “GTPγS EC50 (nM), Table D”, this molecule registered an EC50 of 21 nM.
In the case of `CCNC(=O)CN1CCN(C(=O)Cc2ccc(Cl)c(Cl)c2)[C@H]2[C@H]1COC[C@@H]2N1CCCC1` (racemic) [rac-5A112], the Emax stood at 75%. Besides, the EC50 (GTPγS EC50 (nM), Table D) turned out to be 85 nM.
In the case of `CC(O)CN1CCN(C(=O)Cc2ccc(Cl)c(Cl)c2)[C@H]2[C@H]1COC[C@@H]2N1CCCC1` (stereo partly drawn) [Example 5A89], the Emax stood at 93%. For the setting “GTPγS EC50 (nM), Table D”, this molecule came in with an EC50 of 34 nM.
Take `O=C(Cc1ccc(Cl)c(Cl)c1)N1CCN(CCO)[C@@H]2COC[C@H](N3CCCC3)[C@H]21` (single isomer, unassigned) [Example 5A74A]: the Emax was 95%. The molecule also yielded an EC50 (GTPγS EC50 (nM), Table D) of 21 nM.
The matching figures for `Cn1nccc1CN1CCN(C(=O)Cc2ccc(Cl)c(Cl)c2)[C@H]2[C@H]1COC[C@@H]2N1CCCC1` (racemic) [rac-5A104]: 74% and 9 nM.
`O=C(Cc1ccc(Cl)c(Cl)c1)N1CCN(CC2COC2)[C@H]2COC[C@@H](N3CCCC3)[C@@H]21` (single isomer, unassigned) [Example 5A83B]: the Emax was determined as 113%. The molecule further displayed an EC50 (GTPγS EC50 (nM), Table D) of 24 nM.
Regarding `COCCN1CCN(C(=O)Cc2ccc(Cl)c(Cl)c2)[C@H]2[C@H]1COC[C@@H]2N1CCCC1` (single isomer, unassigned) [Example 5A141A], the Emax came to 96%. The molecule further had an EC50 (GTPγS EC50 (nM), Table D) of 37 nM.
For the molecule `Cc1noc(CN2CCN(C(=O)Cc3ccc(Cl)c(Cl)c3)[C@H]3[C@H]2COC[C@@H]3N2CCCC2)n1` (racemic) [rac-5A105], the Emax came out at 82%. For the same molecule, where the note is “GTPγS EC50 (nM), Table D”, the EC50 was found to be 19 nM.
On to `O=C(Cc1ccc(Cl)c(Cl)c1)N1CCN(Cc2cccc(F)c2)[C@@H]2COC[C@H](N3CCCC3)[C@H]21` (single isomer, unassigned) [Example 5A145A], for which the Emax was 95%. The molecule further registered an EC50 (GTPγS EC50 (nM), Table D) of 5 nM.
As for `O=C(Cc1ccc(Cl)c(Cl)c1)N1CCN(CC2CCOC2)[C@@H]2COC[C@H](N3CCCC3)[C@H]21` (stereo partly drawn) [Example 5A93], the Emax came out at 80%. Further, the midpoint of the response (GTPγS EC50 (nM), Table D), the EC50, lay at 46 nM.
Regarding `COCCS(=O)(=O)N1CCN(C(=O)Cc2ccc(Cl)c(Cl)c2)[C@H]2[C@H](N3CCCC3)COC[C@@H]21` (single isomer, unassigned) [Example 5A146B], the Emax came to 127%. In addition, the EC50 (GTPγS EC50 (nM), Table D) is 115 nM.
The matching figures for `Cc1nnc(CN2CCN(C(=O)Cc3ccc(Cl)c(Cl)c3)[C@H]3[C@H]2COC[C@@H]3N2CCCC2)o1` (racemic) [rac-5A118]: 91% and 40 nM.
For the molecule `O=C(Cc1ccc(Cl)c(Cl)c1)N1CCN(C(=O)C2(O)CCCC2)[C@@H]2COC[C@H](N3CCCC3)[C@H]21` (single isomer, unassigned) [Example 5A125A], the Emax came out at 95%. Under “GTPγS EC50 (nM), Table D”, this molecule yielded an EC50 of 58 nM.
Regarding `O=C(Cc1ccc(Cl)c(Cl)c1)N1CCN(CC2CCS(=O)(=O)CC2)[C@@H]2COC[C@H](N3CCCC3)[C@H]21` (racemic) [rac-5A85], the EC50 came out at 320 nM and the Emax was 100%.
Consider `O=C(Cc1ccc(Cl)c(Cl)c1)N1CCN(C(=O)c2cn[nH]c2)[C@@H]2COC[C@H](N3CCCC3)[C@H]21` (racemic) [rac-5A123], for which the Emax was 62%. Also, the EC50 (GTPγS EC50 (nM), Table D) was 39 nM.
`CS(=O)(=O)CCN1CCN(C(=O)Cc2ccc(Cl)c(Cl)c2)[C@H]2[C@H]1COC[C@@H]2N1CCCC1` (racemic) [rac-5A94]: the Emax worked out at 109%. Also, for the setting “GTPγS EC50 (nM), Table D”, the EC50 amounted to 27 nM.
For `CC(F)(F)CN1CCN(C(=O)Cc2ccc(Cl)c(Cl)c2)[C@H]2[C@H](N3CCCC3)COC[C@@H]21` [Example 5A127B], the Emax was 88%. Also, a half-maximal response (GTPγS EC50 (nM), Table D) (EC50) required 24 nM.
Consider `N#CCN1CCN(C(=O)Cc2ccc(Cl)c(Cl)c2)[C@H]2[C@H]1COC[C@@H]2N1CCCC1` (racemic) [rac-5A87], for which the Emax was 115%. Further, the response (GTPγS EC50 (nM), Table D) was half-maximal at 20 nM (EC50).
For `O=C(Cc1ccc(Cl)c(Cl)c1)N1CCN(C(=O)C2(O)CC2)[C@H]2COC[C@@H](N3CCCC3)[C@@H]21` (single isomer, unassigned) [Example 5A126B], the Emax was determined as 107%. Where the note is “GTPγS EC50 (nM), Table D”, the EC50 was 17 nM.
`O=C(Cc1ccc(Cl)c(Cl)c1)N1CCN(CC2COC2)[C@@H]2COC[C@H](N3CCCC3)[C@H]21` (single isomer, unassigned) [Example 5A83A]: the Emax came out at 141%. In addition, the EC50 (GTPγS EC50 (nM), Table D) turned out to be 199 nM.
